Measurements reported in article PMC10452460, “In Silico, In Vitro, and In Vivo Investigations on Adapalene as Repurposed Third Generation Retinoid against Multiple Myeloma and Leukemia” (Cancers, 2023).

Molecular target: T1, c-MYC (Homo sapiens, UniProt P01106)
T1 construct: recombinant human c-MYC protein (ab169901, Abcam)
Test: microscale thermophoresis with Blue-NHS labelled c-MYC ([…])
Assay type: binding

T1 sequence (P01106 16-454): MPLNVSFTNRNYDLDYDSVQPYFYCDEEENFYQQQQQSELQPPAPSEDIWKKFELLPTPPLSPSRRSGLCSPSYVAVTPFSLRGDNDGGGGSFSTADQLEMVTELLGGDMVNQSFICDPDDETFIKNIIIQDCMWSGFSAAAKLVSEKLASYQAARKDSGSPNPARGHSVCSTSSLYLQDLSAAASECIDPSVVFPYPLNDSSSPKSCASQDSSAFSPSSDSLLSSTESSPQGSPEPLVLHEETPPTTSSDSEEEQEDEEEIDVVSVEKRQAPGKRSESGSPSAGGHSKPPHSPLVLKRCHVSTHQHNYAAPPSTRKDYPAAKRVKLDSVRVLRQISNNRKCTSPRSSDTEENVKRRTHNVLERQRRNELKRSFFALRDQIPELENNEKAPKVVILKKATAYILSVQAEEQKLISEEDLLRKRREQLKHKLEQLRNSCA

COc1ccc(-c2ccc3cc(C(=O)O)ccc3c2)cc1C12CC3CC(CC(C3)C1)C2 [adapalene]
Kd: 3.05 µM
